Measured values as given in US6660910B1, “Selection marker” (Syngenta Mogen B.V., priority 1997, dated 2003).

Experiments:
[1] = system: non-morphogenic cell suspensions of Oryza sativa cv. IR 52; assay: Rice transformation by particle gun with cyanamide or hygromycin selection; assay type: cell-based
Method: Described below is the method used for transformation of non-morphogenic cell suspensions of Oryza sativa cv. IR 52 using a particle inflow gun (PIG) according to Finer et al. (Plant Cell Rep. 11, 323-328, 1992).
A long-term, non-morphogenic suspension culture of Oryza sativa cv. IR 52 was subcultured in weekly intervals in liquid LS-4 (Linsmaier and Skoog, Physiol. Plant. 18, 100-127, 1962) medium and maintained on a rotary shaker (110 rpm) at 28° C. in the dark. (The contents of the LS-4 medium can be found in Table Z). 3-4 days after the last subculture 1.5 ml of this cell suspension (appro. 1.5×10^6 cells) were evenly spread on a filter paper (Whatman no 4) which was subsequently placed on solidified LS-4 medium and cultivated in the dark at 28° C. for 24 h and directly used for bombardment thereafter. For microprojectile bombardment a home-made particle inflow gun (PIG) according to Finer et al. (1992) was used. 300 μg tungsten particles coated with either pMOG 617 (35S-gus and 35S-hyg) or pMOG 873 (35S-cah) were loaded on a particle support. The particles were accelerated by a 2.5 bar helium pulse and had to pass a 500 μm metal stop screen, placed 2 cm under the particle support. The suspension cells were placed 15 cm under the particle support. The PIG was evacuated to 30 mbar before bombardment. After bombardment the cells were cultured at 28° C. in the dark for 3 days. Then the filters with the cells were transferred to solid LS-4 medium containing various concentrations of cyanamide or 50 mg/l hygromycinB (see table 6). The subculture was repeated every 9 days. Resistant microcalli that were visible after 4-6 weeks were transferred to fresh LS-4 medium containing the respective selective agent. From two experiments 7+41 calli transformed with pMOG617 were found resistant to hygromycin, while for the transformation with pMOG873 7 calli survived cyanamide 20 mg/l in the first experiment (results from the second experiment not yet available) and 0+4 calli remained viable on 40 mg/l cyanamide. […] The transgenic nature was confirmed by testing parts of the developing callus for the presence of the DNA in the callitransformed with pMOG873.

[2] = system: root segments of Arabidopsis thaliana cv. C24; assay: Arabidopsis root transformation with selection on cyanamide or kanamycin; assay type: cell-based; settings: pMOG 1156; treatment kanamycin 50 mg/litre; column headed same conc. as treatment in rooting medium

**Q.** Which Callus formation ([1]; 50 mg/l cyanamide or higher) does the source give for `N#CN` [Cyanamide] here?
**A.** No calli were formed

**Q.** What about the “Calli that remained viable” value ([1]; pMOG873 (35S-cah), 40 mg/l cyanamide, two experiments) of the same compound?
**A.** 0+4

**Q.** What about the Calli that survived ([1]; pMOG873 (35S-cah), cyanamide 20 mg/l, first experiment) of the same compound?
**A.** 7

**Q.** What about the “Surviving calli positive in a PCR experiment on the cah-gene” value ([1]; pMOG873, 40 mg/l cyanamide) of the same compound?
**A.** One of the 4

**Q.** `NC[C@H]1O[C@H](O[C@H]2[C@H](O)[C@@H](O[C@H]3O[C@H](CO)[C@@H](O)[C@H](N)[C@H]3O)[C@H](N)C[C@@H]2N)[C@H](O)[C@@H](O)[C@@H]1O` [Kanamycin] was tested. Which “Percentage of GUS expressing plants (% of plants staining blue)” value [2] did it give?
**A.** 100%
